Results as given in ChEMBL document CHEMBL3745645, “Synthesis, in vitro antitumor activity, dihydrofolate reductase inhibition, DNA intercalation and structure-activity relationship studies of 1,3,5-triazine analogues” (Bioorg Med Chem Lett, 2016).
pIC50: −log10 of the molar value. Active and inactive are the calls of the source. No cut-off for these calls is given here.

Assays:
NCI-H460 = assay: Cytotoxicity against human NCI-H460 cells at 10 uM after 48 hrs by SRB assay; assay type: functional; conditions: NCI-H460, 48 h, read-out: GI
SN12C = assay: Cytotoxicity against human SN12C cells at 10 uM after 48 hrs by SRB assay; assay type: functional; conditions: read-out: GI
HT-29 = assay: Cytotoxicity against human HT-29 cells at 10 uM after 48 hrs by SRB assay; assay type: functional; conditions: HT-29, 48 h, read-out: GI
T47D = assay: Cytotoxicity against human T47D cells at 10 uM after 48 hrs by SRB assay; assay type: functional; conditions: read-out: GI
[1] = Cytotoxicity against human DU145 cells after 48 hrs by SRB assay; assay type: functional; conditions: DU-145, 48 h, read-out: LC50 (the source's name)
[2] = Cytotoxicity against human LOXIMVI cells at 10 uM after 48 hrs by SRB assay; assay type: functional; conditions: LOX IMVI, read-out: GI
[3] = Cytotoxicity against human COLO205 cells at 10 uM after 48 hrs by SRB assay; assay type: functional; conditions: COLO 205, 48 h, read-out: GI
[4] = Cytotoxicity against human SW620 cells at 10 uM after 48 hrs by SRB assay; assay type: functional; conditions: SW-620, 48 h, read-out: GI
MDA-MB-231 = assay: Cytotoxicity against human MDA-MB-231 cells at 10 uM after 48 hrs by SRB assay; assay type: functional; conditions: MDA-MB-231, 48 h, read-out: GI
KM12 = assay: Cytotoxicity against human KM12 cells at 10 uM after 48 hrs by SRB assay; assay type: functional; conditions: KM12, 48 h, read-out: GI
[5] = Cytotoxicity against human HL-60(TB) cells after 48 hrs by SRB assay; assay type: functional; conditions: HL-60, 48 h, read-out: LC50 (the source's name)
[6] = Cytotoxicity against human RXF393 cells at 10 uM after 48 hrs by SRB assay; assay type: functional; conditions: RXF 393, 48 h, read-out: GI
MCF7 = assay: Cytotoxicity against human MCF7 cells after 48 hrs by SRB assay; assay type: functional; conditions: MCF7, 48 h, pooled result: one value given for 6 cell lines, strains, targets or settings
[7] = Cytotoxicity against human OVCAR3 cells at 10 uM after 48 hrs by SRB assay; assay type: functional; conditions: OVCAR-3, 48 h, read-out: GI
Malme-3M = assay: Cytotoxicity against human MALME-3M cells at 10 uM after 48 hrs by SRB assay; assay type: functional; conditions: read-out: GI
CCRF-CEM [8] = assay: Cytotoxicity against human CCRF-CEM cells after 48 hrs by SRB assay; assay type: functional
[9] = Cytotoxicity against human OVCAR5 cells at 10 uM after 48 hrs by SRB assay; assay type: functional; conditions: OVCAR-5, 48 h, read-out: GI
SR [10] = assay: Cytotoxicity against human SR cells after 48 hrs by SRB assay; assay type: functional
[11] = Cytotoxicity against human SKOV3 cells at 10 uM after 48 hrs by SRB assay; assay type: functional; conditions: SK-OV-3, 48 h, read-out: GI
[12] = Cytotoxicity against human HOP92 cells at 10 uM after 48 hrs by SRB assay; assay type: functional; conditions: HOP-92, 48 h, read-out: GI
[13] = Cytotoxicity against human LOXIMVI cells after 48 hrs by SRB assay; assay type: functional; conditions: LOX IMVI, pooled result: one value given for 9 cell lines, strains, targets or settings
NCI-H522 = assay: Cytotoxicity against human NCI-H522 cells at 10 uM after 48 hrs by SRB assay; assay type: functional; conditions: NCI-H522, 48 h, read-out: GI
[14] = Cytotoxicity against human SF268 cells at 10 uM after 48 hrs by SRB assay; assay type: functional; conditions: SF-268, 48 h, read-out: GI
NCI-H322M = assay: Cytotoxicity against human NCI-H322M cells at 10 uM after 48 hrs by SRB assay; assay type: functional; conditions: read-out: GI
NCI-H226 = assay: Cytotoxicity against human NCI-H226 cells at 10 uM after 48 hrs by SRB assay; assay type: functional; conditions: NCI-H226, 48 h, read-out: GI
SR [15] = assay: Cytotoxicity against human SR cells at 10 uM after 48 hrs by SRB assay; assay type: functional
[16] = Cytotoxicity against human OVCAR8 cells at 10 uM after 48 hrs by SRB assay; assay type: functional; conditions: OVCAR-8, 48 h, read-out: GI
A498 = assay: Cytotoxicity against human A498 cells at 10 uM after 48 hrs by SRB assay; assay type: functional; conditions: A498, 48 h, read-out: GI
MDA-MB-468 = assay: Cytotoxicity against human MDA-MB-468 cells at 10 uM after 48 hrs by SRB assay; assay type: functional; conditions: MDA-MB-468, 48 h, read-out: GI
Dihydrofolate reductase = biological target: T1, Dihydrofolate reductase (Homo sapiens, UniProt P00374); assay: Inhibition of human recombinant DHFR expressed in Escherichia coli by spectrophotometric analysis
T1 sequence (P00374 whole entry): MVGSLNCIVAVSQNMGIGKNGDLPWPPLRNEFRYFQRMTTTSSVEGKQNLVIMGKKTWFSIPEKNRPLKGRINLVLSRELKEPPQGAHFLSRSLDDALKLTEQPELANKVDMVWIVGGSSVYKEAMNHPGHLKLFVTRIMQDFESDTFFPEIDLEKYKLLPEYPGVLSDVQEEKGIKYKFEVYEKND

SK-MEL-5 = assay: Cytotoxicity against human SK-MEL-5 cells at 10 uM after 48 hrs by SRB assay; assay type: functional; conditions: SK-MEL-5, 48 h, read-out: GI
[17] = Cytotoxicity against human PC3 cells after 48 hrs by SRB assay; assay type: functional; conditions: PC-3, 48 h
[18] = Cytotoxicity against human DU145 cells at 10 uM after 48 hrs by SRB assay; assay type: functional; conditions: DU-145, 48 h, read-out: GI
[19] = Cytotoxicity against human SF539 cells at 10 uM after 48 hrs by SRB assay; assay type: functional; conditions: SF-539, 48 h, read-out: GI
[20] = Cytotoxicity against human IGROV1 cells after 48 hrs by SRB assay; assay type: functional; conditions: IGROV-1, 48 h, pooled result: one value given for 7 cell lines, strains, targets or settings
CCRF-CEM [21] = assay: Cytotoxicity against human CCRF-CEM cells at 10 uM after 48 hrs by SRB assay; assay type: functional; conditions: read-out: GI
[22] = Cytotoxicity against human MOLT4 cells at 10 uM after 48 hrs by SRB assay; assay type: functional; conditions: MOLT-4, 48 h, read-out: GI
U-251 = assay: Cytotoxicity against human U251 cells at 10 uM after 48 hrs by SRB assay; assay type: functional; conditions: U-251, 48 h, read-out: GI
SK-MEL-2 = assay: Cytotoxicity against human SK-MEL-2 cells at 10 uM after 48 hrs by SRB assay; assay type: functional; conditions: SK-MEL-2, 48 h, read-out: GI
K562 = assay: Cytotoxicity against human K562 cells after 48 hrs by SRB assay; assay type: functional; conditions: K562, 48 h
[23] = Cytotoxicity against human RPMI8226 cells after 48 hrs by SRB assay; assay type: functional; conditions: RPMI-8226, 48 h, read-out: LC50 (the source's name)
[24] = pooled result: one value given for 6 cell lines, strains, targets or settings
[25] = pooled result: one value given for 2 cell lines, strains, targets or settings

## Cc1nc2cc(Nc3nc(Nc4ccc(F)cc4)nc(-c4ccc(Cl)cc4)n3)ccc2n1Cc1ccccc1
NCI-H460
  inhibition of growth at 10 µM: 28.9%
SN12C
  inhibition of growth at 10 µM: 22.9%
HT-29
  inhibition of growth at 10 µM: 44.2%
T47D
  inhibition of growth at 10 µM: 69.3%
[1]
  CC50: > 100 µM
[2]
  inhibition of growth at 10 µM: 23.4%
[3]
  inhibition of growth at 10 µM: 38.2%
[4]
  inhibition of growth at 10 µM: 31.9%
MDA-MB-231
  inhibition of growth at 10 µM: 34%
KM12
  inhibition of growth at 10 µM: 62.8%
[5]
  CC50: > 100 µM
[6]
  inhibition of growth at 10 µM: 31.5%
MCF7
  GI50: 6.46 µM
  LC50 (concentration killing 50% of cells): > 100 µM
  TGI: 50.8 µM
[7]
  inhibition of growth at 10 µM: 42.7%
Malme-3M
  inhibition of growth at 10 µM: 27.5%
CCRF-CEM [8]
  LC50: > 100 µM
CCRF-CEM [8]; [24]
  GI50: 3.39 µM
  TGI: 9.55 µM
[9]
  inhibition of growth at 10 µM: 7.71%
SR [10]
  LC50 (concentration killing 50% of cells): > 100 µM
[11]
  inhibition of growth at 10 µM: 7.08%
[12]
  inhibition of growth at 10 µM: 65%
[13]
  GI50: 6.36 µM
  LC50: 80.6 µM
  TGI: 31.7 µM
NCI-H522
  inhibition of growth at 10 µM: 17.2%
[14]
  inhibition of growth at 10 µM: 45.1%
NCI-H322M
  inhibition of growth at 10 µM: 5.98%
NCI-H226
  inhibition of growth at 10 µM: 13.5%
SR [15]
  growth inhibition (GI): Active
[16]
  inhibition of growth at 10 µM: 37.2%
A498
  inhibition of growth at 10 µM: 29.7%
MDA-MB-468
  inhibition of growth at 10 µM: 25.7%
Dihydrofolate reductase
  pIC50: 4.37
SK-MEL-5
  inhibition of growth at 10 µM: 16.6%
[17]
  LC50: > 100 µM
[17]; [25]
  GI50: 13.5 µM
  TGI: > 100 µM
[18]
  inhibition of growth at 10 µM: 18.6%
[19]
  inhibition of growth at 10 µM: 7.42%
[20]
  GI50: 6.1 µM
  LC50 (concentration killing 50% of cells): 65.4 µM
  TGI: 24.4 µM
CCRF-CEM [21]
  inhibition of growth at 10 µM: 96.1%
[22]
  inhibition of growth at 10 µM: 99.2%
U-251
  inhibition of growth at 10 µM: 30.3%
SK-MEL-2
  inhibition of growth at 10 µM: 16.4%
K562
  LC50: > 100 µM
[23]
  CC50: > 100 µM
